For one assay, the system named is 359 kinases. Put plainly: Kinase screen (scanMAX, Ambit). It is filed as binding. The method, then: FIG. 6. YK5 inhibits core biochemical functions of Hsp70s and disrupts the Hsp90/Hsp70 interaction. a) Refolding of denatured luciferase by Hsc70 and DJA2 at 30° C. was measured for the indicated times in the presence of YK5 (100 μM) or vehicle (left), or at 60 min in the presence of indicated concentrations of YK5 (right). b) Hsc70 ATPase rates were measured for reactions at 30° C. with the indicated combinations of Hsc70 and co-chaperones in the presence of vehicle (DMSO) or YK5 (100 μM). ADP production was monitored by thin layer chromatography separation of radiolabeled ADP from ATP and phosphorimaging analysis (lower). The data are consistent with those obtained from multiple repeat experiments (n≧2). c,d) SKBr3 cells were treated for 24 h with vehicle or indicated concentrations of YK5 (c) or for the indicated times with YK5 (10 μM) (d). Proteins isolated with anti-Hsp90 and Hsp70s antibodies (IP: Hsp90 or Hsp70), or present in the cell extract (Lysate) were analyzed by WB. […] Proteins were applied to a native gel and analyzed by immunoblotting. […]
Kinase Screen. […] The kinase concentration in the eluates was measured by qPCR. KINOMEscan's selectivity score (S) is a quantitative measure of compound selectivity. It is calculated by dividing the number of kinases that bind to the compound by the total number of distinct kinases tested, excluding mutant variants. […]

Assay [1] deals with SKBr3 HER2+ breast cancer cells. The experiment in a line: Growth Inhibition Assay (Alamar blue), SKBr3. Format: cell-based, human. The settings on record: Homo sapiens, SK-BR-3, 72 h. The method, then: The IC50 values listed for some of these compounds illustrate the antiproliferative effects of the subject compounds and were obtained using the Growth Inhibition assays described herein.
Growth Inhibition Assay. Antiproliferative effects of inhibitors were evaluated using the dye Alamar blue. This reagent offers a rapid objective measure of cell viability in cell culture, and it uses the indicator dye resazurin to measure the metabolic capacity of cells, an indicator of cell viability. Briefly, cells were plated on Costar 96-well plates. For attached cells (such as SKBr3, MDA-MB-468, LNCaP, MRCS), 8,000 cells/well were used. For suspension cells (such as MOLM-13, Kasumi-1, OCI-Ly7, PBL), 20,000 cells/well were plated. Cells were allowed to incubate for 24 h at 37° C. before drug treatment. Drugs were added in triplicates at the indicated concentrations, and the plate was incubated for 72 h. Alamar Blue (440 μM) was added, and the plate read 6 h later using the Analyst GT (Fluorescence intensity mode, excitation 530 nm, emission 580 nm, with 560=dichroic mirror). Results were analyzed using the Softmax Pro software. The percentage cell growth inhibition was calculated by comparing fluorescence readings obtained from treated versus control cells, accounting for initial cell population (time zero).
For orientation: Alamar Blue is a resazurin reagent that responds to reducing activity.

The next assay has as its system Kasumi-1 cells. Put plainly: Apoptosis, acridine orange/ethidium bromide, Kasumi-1. It is filed as cell-based, human. To be noted: 10 μM, 24 h. As to the method:
FIG. 13. YK5 has a higher apoptotic effect than Hsp90 inhibitors in select tumors. (a-d) Cells were treated with the indicated concentrations of inhibitors for the times presented. (a,b) Apoptotic cells were quantified by dual acridine orange/ethidium bromide staining as described in Methods. (c,d) Molecular markers of apoptosis (PARP cleavage) were analyzed in cells treated for 24 h with indicated concentrations of inhibitors (c) or for the indicated times with the indicated concentration of inhibitors (d) by western blotting. (e) MDAMB-468 cells were treated with vehicle, TNFα (20 ng/ml), YK5 (1 μM), pretreated with YK5 for 2 h before TNFα or co-treated, and cells were lysed for western blot analysis (left), or cell death was quantified by analyzing the hypodiploid population upon propidium iodine staining (right). […]
To determine whether cell death by YK5 was attributable to apoptosis, cells were treated with YK5 and effects on morphology, as well as on several effectors and mediators of apoptosis were analyzed (FIG. 13). To quantify the number of cells undergoing apoptosis, cells were stained with acridine orange/ethidium bromide (AO/EB) and analyzed under a fluorescence microscope for the percentage of viable, apoptotic (early and late) and necrotic cells. […]
Apoptosis-Acridine Orange/Ethidium Bromide. […] Percentage of apoptotic cells was determined from 200-300 cells counted in each group.

Here are results for one compound from patent publication US9567318B2, “Substituted pyrimidine compounds and uses thereof” (Memorial Sloan-Kettering Cancer Center, priority 2009, dated 2017).

The IC50 is the concentration that gives 50% inhibition.

For the compound `C=CC(=O)Nc1cc(N)nc(Sc2c(OC)nc(N3CCN(C)CC3)nc2OC)n1` [YK5, N-(6-amino-2-(4,6-dimethoxy-2-(4-methylpiperazin-1-yl)pyrimidin-5-ylthio)pyrimidin-4-yl)acrylamide], the “activity against 359 kinases” value with 359 kinases (10 μM) is recorded as “inert”. Moreover, the “c-Met in the kinase screen” value with 359 kinases (TREEspot interaction map) is recorded as “potential low affinity kinase hit”. This compound yielded an IC50 in assay [1] of 0.455 µM. The compound further gave a cells undergoing apoptosis with Kasumi-1 cells of 70%.
